How the values were obtained:
[1] = test system: RXF 393; assay: NCI-60 anticancer screen (SRB; single dose and five doses); conditions: Homo sapiens, RXF 393, 48 h, read-out: Growth Percentage
[2] = test system: HOP-62; assay: as above; conditions: Homo sapiens, HOP-62, 48 h, read-out: Growth Percentage
[3] = test system: MALME-3M; assay: as above; conditions: Homo sapiens, 48 h, read-out: Growth Percentage
[4] = test system: SW-620; assay: as above; conditions: Homo sapiens, SW-620, 48 h, read-out: Growth Percentage
[5] = test system: SF-539; assay: as above; conditions: Homo sapiens, SF-539, 48 h, read-out: Growth Percentage
[6] = test system: DU-145; assay: as above; conditions: Homo sapiens, DU-145, 48 h, read-out: Growth Percentage
[7] = test system: SK-MEL-28; assay: as above; conditions: Homo sapiens, SK-MEL-28, 48 h, read-out: Growth Percentage
[8] = test system: NCI-H23; assay: as above; conditions: Homo sapiens, NCI-H23, 48 h, read-out: Growth Percentage
[9] = test system: SNB-19; assay: cells; conditions: Homo sapiens, SNB-19, 48 h, read-out: Growth Percentage
[10] = test system: SF-295; assay: NCI-60 anticancer screen (SRB; single dose and five doses); conditions: Homo sapiens, SF-295, 48 h, read-out: Growth Percentage
[11] = test system: MDA-MB-231/ATCC; assay: as above; conditions: Homo sapiens, MDA-MB-231, 48 h, read-out: Growth Percentage
[12] = test system: BT-549; assay: as above; conditions: Homo sapiens, BT-549, 48 h, read-out: Growth Percentage
[13] = test system: 786-0; assay: as above; conditions: Homo sapiens, 786-0, 48 h, read-out: Growth Percentage
[14] = test system: MDA-MB-435; assay: as above; conditions: Homo sapiens, MDA-MB-435, 48 h, read-out: Growth Percentage
[15] = test system: HL-60(TB); assay: as above; conditions: Homo sapiens, HL-60, 48 h, read-out: Growth Percentage
[16] = test system: A498; assay: as above; conditions: Homo sapiens, A498, 48 h, read-out: Growth Percentage, A498; dose of 10 μM
[17] = test system: M14; assay: as above; conditions: Homo sapiens, M14, 48 h, read-out: Growth Percentage
[18] = test system: SK-OV-3; assay: as above; conditions: Homo sapiens, SK-OV-3, 48 h, read-out: Growth Percentage
[19] = test system: HCC-2998; assay: as above; conditions: Homo sapiens, HCC 2998, 48 h, read-out: Growth Percentage
[20] = test system: UACC-257; assay: as above; conditions: Homo sapiens, UACC-257, 48 h, read-out: Growth Percentage
[21] = test system: MOLT-4; assay: as above; conditions: Homo sapiens, MOLT-4, 48 h, read-out: Growth Percentage
[22] = test system: SK-MEL-5; assay: as above; conditions: Homo sapiens, SK-MEL-5, 48 h, read-out: Growth Percentage
[23] = test system: T-47D; assay: as above; conditions: Homo sapiens, T47D, 48 h, read-out: Growth Percentage
[24] = test system: OVCAR-4; assay: as above; conditions: Homo sapiens, OVCAR-4, 48 h, read-out: Growth Percentage
[25] = test system: TK-10; assay: as above; conditions: Homo sapiens, TK-10, 48 h, read-out: Growth Percentage
[26] = test system: PC-3; assay: as above; conditions: Homo sapiens, PC-3, 48 h, read-out: Growth Percentage
[27] = test system: SN12C; assay: as above; conditions: Homo sapiens, 48 h, read-out: Growth Percentage
[28] = test system: CCRF-CEM; assay: NCI-60 anticancer screen (SRB; single dose 10 μM and five doses); conditions: Homo sapiens, 48 h, read-out: Growth Percentage

## Cc1ccc(/C=C/C(=O)c2sc(=S)[nH]c2C)cc1 [2j, (E)-1-(4-Methyl-2-Thioxo-2,3-Dihydrothiazol-5-yl)-3-(p-Tolyl)Prop-2-En-1-One]
[1]
  activity at 10 µM: 55.4%
[2]
  activity at 10 µM: 54.1%
[3]
  activity at 10 µM: 84.7%
[4]
  activity at 10 µM: 35.9%
[5]
  activity at 10 µM: 43%
[6]
  activity at 10 µM: 54.6%
[7]
  activity at 10 µM: 92.8%
[8]
  activity at 10 µM: 68.5%
[9]
  activity at 10 µM: 65.5%
[10]
  activity at 10 µM: 83.4%
[11]
  activity at 10 µM: 71.7%
[12]
  activity at 10 µM: 56.1%
[13]
  activity at 10 µM: 70.7%
[14]
  activity at 10 µM: 39%
[15]
  activity at 10 µM: 61%
[16]
  activity at 10 µM: 131%
[17]
  activity at 10 µM: 83%
[18]
  activity at 10 µM: 102%
[19]
  activity at 10 µM: 77.2%
[20]
  activity at 10 µM: 80.1%
[21]
  activity at 10 µM: 68.8%
[22]
  activity at 10 µM: 56.1%
[23]
  activity at 10 µM: 38.3%
[24]
  activity at 10 µM: 59.2%
[25]
  activity at 10 µM: 79.8%
[26]
  activity at 10 µM: 74.8%
[27]
  activity at 10 µM: 62.3%
[28]
  activity at 10 µM: 24.6%

Reference: article PMC11435058, “Synthesis of New Thiazole-Privileged Chalcones as Tubulin Polymerization Inhibitors with Potential Anticancer Activities” (Pharmaceuticals, 2024)
